From ChEMBL document CHEMBL2074267, “Dexamethasone modulation of multidrug transporters in normal tissues” (FEBS Lett, 1999)

Columns and labels:
[1] = molecular target: T1, ATP-binding cassette sub-family C member 2 (Rattus norvegicus, UniProt Q63120); experiment: (§1) TP_TRANSPORTER: Western in vivo, kidney of SD rat; assay type: functional, organism-based, Sprague-Dawley
[2] = molecular target: T1, ATP-binding cassette sub-family C member 2; experiment: TP_TRANSPORTER: Western in vivo, liver of SD rat; assay type: functional, organism-based, Sprague-Dawley
[3] = molecular target: Multidrug resistance protein 1a (Rattus norvegicus) (UniProt Q6PSM0); experiment: as §1; assay type: functional, organism-based; settings: Sprague-Dawley
Sequence of Multidrug resistance protein 1a (Rattus norvegicus) (Q6PSM0 as listed by the source): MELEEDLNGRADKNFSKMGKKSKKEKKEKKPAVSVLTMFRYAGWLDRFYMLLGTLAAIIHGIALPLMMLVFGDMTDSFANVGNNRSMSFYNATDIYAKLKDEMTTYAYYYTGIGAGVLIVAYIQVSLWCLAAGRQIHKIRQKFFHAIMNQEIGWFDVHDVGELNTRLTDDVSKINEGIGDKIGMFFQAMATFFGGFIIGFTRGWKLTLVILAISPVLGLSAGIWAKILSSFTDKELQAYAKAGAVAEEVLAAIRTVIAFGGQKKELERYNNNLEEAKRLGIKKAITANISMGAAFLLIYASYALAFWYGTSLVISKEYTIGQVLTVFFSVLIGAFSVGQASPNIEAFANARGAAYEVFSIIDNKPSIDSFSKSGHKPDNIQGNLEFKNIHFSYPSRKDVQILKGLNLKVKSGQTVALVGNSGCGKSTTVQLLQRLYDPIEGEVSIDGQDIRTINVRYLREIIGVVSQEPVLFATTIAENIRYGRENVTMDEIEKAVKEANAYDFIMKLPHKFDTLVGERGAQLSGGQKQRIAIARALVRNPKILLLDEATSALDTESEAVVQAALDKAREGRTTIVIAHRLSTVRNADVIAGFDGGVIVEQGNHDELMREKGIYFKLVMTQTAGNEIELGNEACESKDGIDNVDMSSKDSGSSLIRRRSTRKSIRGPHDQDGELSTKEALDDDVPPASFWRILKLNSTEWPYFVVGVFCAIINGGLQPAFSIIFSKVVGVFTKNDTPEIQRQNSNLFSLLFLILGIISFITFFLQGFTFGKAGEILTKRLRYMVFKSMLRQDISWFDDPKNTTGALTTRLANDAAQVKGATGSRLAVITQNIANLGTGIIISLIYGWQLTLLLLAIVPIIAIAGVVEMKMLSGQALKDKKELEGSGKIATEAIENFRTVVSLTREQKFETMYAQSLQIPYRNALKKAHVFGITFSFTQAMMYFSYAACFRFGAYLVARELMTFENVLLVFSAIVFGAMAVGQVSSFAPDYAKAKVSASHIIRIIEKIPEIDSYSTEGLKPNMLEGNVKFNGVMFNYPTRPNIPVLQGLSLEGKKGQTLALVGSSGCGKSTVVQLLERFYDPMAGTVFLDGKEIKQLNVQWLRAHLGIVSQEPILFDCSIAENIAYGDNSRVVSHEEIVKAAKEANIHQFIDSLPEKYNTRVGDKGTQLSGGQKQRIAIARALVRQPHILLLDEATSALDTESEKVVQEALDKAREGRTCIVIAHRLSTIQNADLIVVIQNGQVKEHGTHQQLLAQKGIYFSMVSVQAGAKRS

T1 sequence (Q63120 whole entry): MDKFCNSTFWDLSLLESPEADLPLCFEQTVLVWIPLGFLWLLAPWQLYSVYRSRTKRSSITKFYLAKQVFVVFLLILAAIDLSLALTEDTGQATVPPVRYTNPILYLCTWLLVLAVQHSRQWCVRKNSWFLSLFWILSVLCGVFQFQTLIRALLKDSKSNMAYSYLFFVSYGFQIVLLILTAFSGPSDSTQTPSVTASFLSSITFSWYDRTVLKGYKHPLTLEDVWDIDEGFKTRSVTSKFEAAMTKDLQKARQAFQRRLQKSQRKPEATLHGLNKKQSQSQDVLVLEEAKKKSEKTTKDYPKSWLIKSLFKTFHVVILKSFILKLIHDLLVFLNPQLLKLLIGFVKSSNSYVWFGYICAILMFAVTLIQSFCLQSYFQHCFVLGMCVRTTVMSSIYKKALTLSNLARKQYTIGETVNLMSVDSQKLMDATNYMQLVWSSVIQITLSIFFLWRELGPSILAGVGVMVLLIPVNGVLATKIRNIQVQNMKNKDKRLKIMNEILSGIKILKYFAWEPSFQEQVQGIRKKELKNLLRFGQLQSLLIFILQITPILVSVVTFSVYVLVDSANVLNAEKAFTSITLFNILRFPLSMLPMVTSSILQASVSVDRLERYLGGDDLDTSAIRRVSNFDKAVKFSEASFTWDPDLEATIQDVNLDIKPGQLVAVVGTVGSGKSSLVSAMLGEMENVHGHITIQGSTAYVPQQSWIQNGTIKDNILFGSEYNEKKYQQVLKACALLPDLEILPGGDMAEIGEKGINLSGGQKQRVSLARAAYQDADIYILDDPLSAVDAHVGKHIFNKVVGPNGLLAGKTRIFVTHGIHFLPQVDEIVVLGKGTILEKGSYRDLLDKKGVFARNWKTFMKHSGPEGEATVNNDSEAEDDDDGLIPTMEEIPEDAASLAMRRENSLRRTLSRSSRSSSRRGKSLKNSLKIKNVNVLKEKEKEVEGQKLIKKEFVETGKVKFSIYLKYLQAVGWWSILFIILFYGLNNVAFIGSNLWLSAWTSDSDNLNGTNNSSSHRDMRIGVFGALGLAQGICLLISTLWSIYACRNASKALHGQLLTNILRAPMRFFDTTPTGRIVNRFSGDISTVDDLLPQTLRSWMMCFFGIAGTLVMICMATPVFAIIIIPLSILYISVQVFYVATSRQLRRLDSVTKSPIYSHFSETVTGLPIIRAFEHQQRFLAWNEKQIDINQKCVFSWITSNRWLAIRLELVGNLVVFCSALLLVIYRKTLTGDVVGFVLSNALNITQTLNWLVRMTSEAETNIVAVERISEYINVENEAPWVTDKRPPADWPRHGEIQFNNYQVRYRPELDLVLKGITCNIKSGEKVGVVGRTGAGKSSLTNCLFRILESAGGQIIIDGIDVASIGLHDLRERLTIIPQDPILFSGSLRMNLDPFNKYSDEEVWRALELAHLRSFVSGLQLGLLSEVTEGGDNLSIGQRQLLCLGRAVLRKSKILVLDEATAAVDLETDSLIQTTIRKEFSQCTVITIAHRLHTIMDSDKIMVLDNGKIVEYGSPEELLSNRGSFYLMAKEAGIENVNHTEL

In the case of `C[C@@H]1C[C@H]2[C@@H]3CCC4=CC(=O)C=C[C@]4(C)[C@@]3(F)[C@@H](O)C[C@]2(C)[C@@]1(O)C(=O)CO` [DEXAMETHASONE], the Activity [1] is reported as “inducer [+]”, the Activity [2] is reported as “inducer [+]” and the Activity [3] is reported as “inducer [Decrease]”.
